Read-outs that look alike come from different tables or passages of the source.
Columns and labels:
[1] = target: mu opioid receptor (MOR) (Homo sapiens (Human), UniProt P35372); assay: Competitive radioligand binding at MOR ([3H] Naloxone)
Protocol: (§1) Receptor Binding at MOR and NMDA.
(§2) Affinities of various compounds were measured in vitro using competitive radioligand binding assays. Serial dilutions of test compounds were incubated with membranes prepared from CHO-K1 cells expressing the mu opioid receptor (MOR; for opioid receptor binding) or rat forebrain membranes (for NMDA receptor binding). 2 nM [^3H] Naloxone (MOR) or 0.2 nM [^3H] MK801 (NMDA) were used as the specific, competitive radioligands. 10 uM Naloxone (MOR), or 10 uM MK801 (NMDA) was used to determine non-specific binding. Bound radioactivity was measured using a scintillation counter & IC50 values for test compounds were determined by non-linear regression analysis using a one-site competition model (Graph Pad Prizm). Due to each test compound being solubilized in a buffered system for the assay, the results presented herein reflect the free base activity.

[2] = target: NMDA receptor; assay: Competitive radioligand binding at NMDA receptor ([3H] MK801), rat forebrain membranes; settings: 0.2 nM [3H] MK801, reflects free base activity
Protocol: as §1, §2

[3] = membranes from CHO-K1 cells expressing MOR, 2 nM [3H] Naloxone, reflects free base activity, read-out: MOR IC50

Row | SMILES | IC50 [1, 3] [µM] | IC50 [2] [µM] | IC50 [1] [µM]
1 | COCCOCCN1CC[C@]23CCCC[C@H]2[C@H]1Cc1ccc(Nc2ccnnc2)cc13 [Compound 99, (4bR,8aR,9R)-11-(2-(2-methoxyethoxy)ethyl)-N-(pyridazin-4-yl)-6,7,8,8a,9,10-hexahydro-5H-9,4b-(epiminoethano)phenanthren-3-amine] | > 1 | 1 to 10 | –
2 | COCCOCCOCCOCCOCCOc1cncc(Nc2ccc3c(c2)[C@@]24CCCC[C@H]2[C@@H](C3)N(C)CC4)c1 [Compound 54, (4bR,8aR,9R)—N-(5-(2,5,8,11,14-pentaoxahexadecan-16-yloxy)pyridin-3-yl)-11-methyl-6,7,8,8a,9,10-hexahydro-5H-9,4b-(epiminoethano)phenanthren-3-amine] | 0.01 to 0.1 | > 10 | –
3 | COCCOCCn1cc(-c2ccc3c(c2)C24CCCCC2C(C3)N(C)CC4)cn1 (stereo not shown) [Compound 65, 3-{1-[2-(2-methoxyethoxy)ethyl]-1H-pyrazol-4-yl}-17-methylmorphinan] | > 1 | > 10 | –
4 | COCCN1CC[C@]23CCCC[C@H]2[C@H]1Cc1ccc(Nc2cccnc2)cc13 [Compound 86, 17-(2-methoxyethyl)-N-(pyridin-3-yl)morphinan-3-amine] | – | 1 to 10 | 0.0001 to 0.01
5 | COCCOCCOCCNc1nc2cc3c(cc2s1)C[C@@H]1[C@@H]2CCCC[C@]32CCN1C [Compound 71, (4aR,5R,11bR)—N-(2-(2-(2-methoxyethoxy)ethoxy)ethyl)-14-methyl-2,3,4,4a,5,6-hexahydro-1H-5,11b-(epiminoethano)phenanthro[3,2-d]thiazol-9-amine] | 0.1 to 1 | 1 to 10 | –
6 | CN1CC[C@]23CCCC[C@H]2[C@H]1Cc1ccc(Nc2cccnn2)cc13 [Compound 61, 17-methyl-N-(pyridazin-3-yl)morphinan-3-amine] | – | 1 to 10 | 0.1 to 1
7 | CN1CC[C@]23CCCC[C@H]2[C@H]1Cc1cc2cccnc2cc13 [Compound 89, (4aR,5R,12bR)-15-methyl-2,3,4,4a,5,6-hexahydro-1H-5,12b-(epiminoethano)naphtho[2,1-g]quinoline] | 0.1 to 1 | 1 to 10 | –
8 | COCCOCCN1CC[C@]23CCCC[C@H]2[C@H]1Cc1ccc(Nc2ccncc2)cc13 [Compound 98, 17-[2-(2-methoxyethoxy)ethyl]-N-(pyridin-4-yl)morphinan-3-amine] | – | 0.1 to 1 | 0.1 to 1
9 | COCCOCCN1CC[C@]23CCCC[C@H]2[C@H]1Cc1ccc(-c2ccoc2)cc13 [Compound 106, (4bR,8aR,9R)-3-(furan-3-yl)-11-(2-(2-methoxyethoxy)ethyl)-6,7,8,8a,9,10-hexahydro-5H-9,4b-(epiminoethano)phenanthrene] | – | > 10 | 0.1 to 1
10 | COCCOCCN1CC[C@]23CCCC[C@H]2[C@H]1Cc1ccc(-c2cn[nH]c2)cc13 [Compound 100, (4bR,8aR,9R)-11-(2-(2-methoxyethoxy)ethyl)-3-(1H-pyrazol-4-yl)-6,7,8,8a,9,10-hexahydro-5H-9,4b-(epiminoethano)phenanthrene] | > 1 | 1 to 10 | –
11 | COCCNc1ccc2c(c1)[C@@]13CCCC[C@H]1[C@@H](C2)N(C)CC3 [Compound 59, N-(2-methoxyethyl)-17-methylmorphinan-3-amine] | – | 1 to 10 | 0.1 to 1
12 | COCCOc1cc2c(cc1O)[C@@]13CCCCC1[C@@H](C2)N(C)CC3 (stereo partly shown) [Compound 73, 2-(2-methoxyethoxy)-17-methylmorphinan-3-ol] | – | 1 to 10 | 0.1 to 1
13 | COCCO[C@@H]1CC[C@H]2[C@H]3Cc4ccc(O)cc4[C@@]2(CCN3C)C1 [Compound 31, (6β)-6-(2-methoxyethoxy)-17-methylmorphinan-3-ol] | – | 1 to 10 | 0.0001 to 0.01
14 | COCCNC(=O)Nc1nc2cc3c(cc2s1)C[C@@H]1[C@@H]2CCCC[C@]32CCN1C [Compound 72, 1-(2-methoxyethyl)-3-((4aR,5R,11bR)-14-methyl-2,3,4,4a,5,6-hexahydro-1H-5,11b-(epiminoethano)phenanthro[3,2-d]thiazol-9-yl)urea] | > 1 | > 10 | –
15 | COCCOCCOCCOCCOCCOc1ccc(Nc2ccc3c(c2)[C@@]24CCCC[C@H]2[C@@H](C3)N(C)CC4)cn1 [Compound 64, 17-methyl-N-[6-(2,5,8,11,14-pentaoxahexadecan-16-yloxy)pyridin-3-yl]morphinan-3-amine] | 0.01 to 0.1 | > 10 | –
16 | CN1CC[C@]23CCCC[C@H]2[C@H]1Cc1ccc(-c2ccoc2)cc13 [Compound 51, 3-(3-furyl)-17-methylmorphinan] | – | 1 to 10 | 0.01 to 0.1
17 | COCCN1CC[C@]23CCCC[C@H]2[C@H]1Cc1ccc(OC)cc13 [Compound 11, 3-methoxy-17-(2-methoxyethyl)-morphinan] | – | 1 to 10 | 0.1 to 1

Row | SMILES | IC50 [1, 3] [µM] | IC50 [2] [µM] | IC50 [1] [µM]
18 | COCCOCCOCCOCCOCCOCCNc1nc2cc3c(cc2s1)C[C@@H]1[C@@H]2CCCC[C@]32CCN1C [Compound 70, (4aR,5R,11bR)-14-methyl-N-(2,5,8,11,14,17-hexaoxanonadecan-19-yl)-2,3,4,4a,5,6-hexahydro-1H-5,11b-(epiminoethano)phenanthro[3,2-d][1,3]thiazol-9-amine] | – | > 10 | –
19 | COCCOCCOCCOCCOCCOc1ccc2c(c1)[C@@]13CCCC[C@H]1[C@@H](C2)N(C)CC3 [Compound 14, 17-methyl-3-(2,5,8,11,14-pentaoxahexadecan-16-yloxy)morphinan] | > 1 | > 10 | –
20 | COCCNC(=N)Nc1nc2cc3c(cc2s1)C[C@@H]1[C@@H]2CCCC[C@]32CCN1C [Compound 92, 1-(2-methoxyethyl)-3-((4aR,5R,11bR)-14-methyl-2,3,4,4a,5,6-hexahydro-1H-5,11b-(epiminoethano)phenanthro[3,2-d]thiazol-9-yl)guanidine] | 0.1 to 1 | > 10 | –
21 | COCCOCCOCCNC(=O)c1ccc2c(c1)[C@@]13CCCC[C@H]1[C@@H](C2)N(C)CC3 [Compound 41, N-{2-[2-(2-methoxyethoxy)ethoxy]ethyl}-17-methylmorphinan-3-carboxamide] | > 1 | > 10 | –
22 | COCCOCCOc1cncc(Nc2ccc3c(c2)[C@@]24CCCC[C@H]2[C@@H](C3)N(C)CC4)c1 [Compound 48, N-{5-[2-(2-methoxyethoxy)ethoxy]pyridin-3-yl}-17-methylmorphinan-3-amine] | 0.01 to 0.1 | > 10 | –
23 | COCCOCCOCCO[C@H]1CCC[C@H]2[C@H]3Cc4ccc(O)cc4[C@@]12CCN3C [Compound 75, (5α)-5-{2-[2-(2-methoxyethoxy)ethoxy]ethoxy}-17-methylmorphinan-3-ol] | 0.01 to 0.1 | > 10 | –
24 | COCCOc1cc(O)cc2c1C[C@@H]1[C@@H]3CCCC[C@]23CCN1C [Compound 74, 1-(2-methoxyethoxy)-17-methylmorphinan-3-ol] | > 1 | > 10 | –
25 | COCCN1CC[C@]23CCCC[C@H]2[C@H]1Cc1ccc(Nc2ccncc2)cc13 [Compound 93, 17-(2-methoxyethyl)-N-(pyridin-4-yl)morphinan-3-amine] | – | 0.0001 to 0.1 | 0.01 to 0.1
26 | COCCOCCOCCOCCOCCNc1nc2ccc3c(c2s1)[C@@]12CCCC[C@H]1[C@@H](C3)N(C)CC2 [Compound 77, (7R,7aR,11aR)—N-(2,5,8,11,14-pentaoxahexadecan-16-yl)-14-methyl-7,7a,8,9,10,11-hexahydro-6H-7,11a-(epiminoethano)phenanthro[3,4-d]thiazol-2-amine] | > 1 | > 10 | –
27 | CN1CC[C@]23CCCC[C@H]2[C@H]1Cc1ccc(Nc2cnccn2)cc13 [Compound 55, 17-methyl-N-(pyrazin-2-yl)morphinan-3-amine] | – | > 10 | 0.0001 to 0.01
28 | CN1CC[C@]23CCCC[C@H]2[C@H]1Cc1ccc(Nc2ccncc2)cc13 [Compound 49, 17-methyl-N-(pyridin-4-yl)morphinan-3-amine] | – | 0.0001 to 0.1 | 0.1 to 1
29 | CN1CC[C@]23CCCC[C@H]2[C@H]1Cc1cc(C#N)c(N)cc13 [Compound 103, 3-amino-17-methylmorphinan-2-carbonitrile] | > 1 | > 10 | –
30 | CN1CC[C@]23CCCC[C@H]2[C@H]1Cc1ccc(-n2ccnc2)cc13 [Compound 62, 3-(1H-imidazol-1-yl)-17-methylmorphinan] | – | 0.1 to 1 | 0.01 to 0.1
31 | CN1CC[C@]23CCCC[C@H]2[C@H]1Cc1cc2sc(NC(=O)C4CCN(C(=O)OC(C)(C)C)CC4)nc2cc13 [Compound 85, tert-butyl 4-{[(4aR,5R,11bR)-14-methyl-2,3,4,4a,5,6-hexahydro-1H-5,11b-(epiminoethano)phenanthro[3,2-d][1,3]thiazol-9-yl]carbamoyl}piperidine-1-carboxylate] | > 1 | > 10 | –
32 | COc1ccccc1C(=O)Nc1ccc2c(c1)[C@@]13CCCC[C@H]1[C@@H](C2)N(C)CC3 [Compound 26, 2-methoxy-N-((4bR,8aR,9R)-11-methyl-6,7,8,8a,9,10-hexahydro-5H-9,4b-(epiminoethano)phenanthren-3-yl)benzamide] | > 1 | > 10 | –
33 | COCCOc1c(OC)ccc2c1[C@@]13CCCC[C@H]1[C@@H](C2)N(C)CC3 [Compound 21, 3-methoxy-4-(2-methoxyethoxy)-17-methylmorphinan] | – | – | 0.1 to 1
